Results from US20260055141A1, “COMPOSITIONS AND METHODS FOR CONTROLLING FOOD INTAKE, ENERGY EXPENDITURE, AND BODY WEIGHT FOR THE TREATMENT OF OBESITY AND METABOLIC DISEASES” (The Trustees of the University of Pennsylvania, priority 2022, published 2026).
“And” between values parts separate entries of the source, which are not always exact repeats. Equal values may be shown once. “Also recorded” adds a separate entry of the source. Read-outs that look alike come from different tables or passages of the source. Non-standard residues stand in square brackets, D forms with d. No end group written: not given here.

Tests used:
[1] = molecular target: T1, human GLP-1R (21-139aa region) (Homo sapiens, UniProt P43220); assay: Surface Plasmon Resonance (SPR) binding at hGLP-1R; conditions: for binding at hGLP-1R: Ex-4 positive and ODN negative control
T1 construct: human GLP-1R (21-139aa region); purchased rndsystems.com (R&D Systems) 10956-GL
Description: SU75-36, SU75-37, Ex-4, and ODN binding at the human GLP-1R (21-139aa region; available on the world wide web at rndsystems.com cat #10956-GL) was measured via a Nicoya Open SPR instrument using His-tagged hGLP-1R bound to an NTA-coated gold sensor (Nicoya cat #SEN-AU-100-10-NTA) using HBSS (in-house) at 20 μL/min flow rate. Data was fit via a global, one-to-one model using Nicoya OpenSPR software. In-house Ex-4 and ODN were used as the positive and negative controls, respectively.

[2] = Circular dichroism (CD) spectroscopy, secondary structure; conditions: 40 μM in 0.5% saline
[3] = assay type: in vivo, rat; conditions: for food intake compared to control: SU75-36 20 or 200 μg, SU75-37 20 μg, 1, 3, 6, 24 h; for body weight change after 24 hours: any dosage, rats fed chow or HFD; for kaolin intake (pica, model of malaise and nausea): rat, in vivo
Description: Adult male Sprague-Dawley rats (Charles River) were individually housed under a 12 h-light: 12 h-dark cycle in a temperature and humidity-controlled satellite vivarium and had ad libitum access to water and chow (5001, LabDiet) or a 60% high fat diet (HFD): D12492, Research Diets) and when applicable had ad libitum access to kaolin pellets (K50001, Research Diets). Rats were exposed to kaolin for at least 5 days prior to measuring kaolin consumption in pica testing. Except for studies conducted in the bioDAQ, for all feeding studies rats were housed in hanging wire cages to allow for accurate measurement of food spillage. Experiments were conducted under the National Institutes for Health Guide for the Care and Use of Laboratory Animals and all procedures were approved by the Institutional Animal Care and Use Committee at the University of Pennsylvania.
For cannula implantation, rats were anesthetized by intraperitoneal injection of a mixture containing ketamine (90 mg/kg, Butler Animal Health Supply), xylazine (2.7 mg/kg, Anased), and acepromazine (0.64 mg/kg, Butler Animal Health Supply) (KAX) and then placed into a stereotaxic apparatus. Each rat was stereotaxically implanted with a guide cannula (26-ga, Plastics One) aimed at the fourth ventricle (guide cannula coordinates: on midline. 2.5 mm anterior to occipital suture, 5.2 mm ventral to skull; internal cannula aimed 7.2 mm ventral to skull) or the lateral ventricle (guide cannula coordinates: 1.5 mm lateral to midline, 0.9 mm posterior to bregma. 1.8 mm ventral to skull; internal cannula aimed 3.8 mm ventral to skull). For all cannulas, dummies (no projection beyond guide) were inserted in the guide cannula and left until infusions were performed. For all surgeries, rats received post-operative temperature support and analgesia was provided immediately following surgery and for two post-operative days (2 mg/kg meloxicam).
For all studies measuring food intake following drug treatment, central injections were given at a volume of 2 μL using a Hamilton syringe terminating in an injector tip extending 2.0 mm beyond the guide cannula. For acute treatment days, rats were food deprived for 2 hours before the dark cycle and injections were done immediately prior to the dark cycle onset. Food and kaolin intake was measured 1, 3, 6, and 24 hours after injections were completed and food crumbs were weighed and accounted for between each timepoint. Body weight was measured during injections and 24 hours after. Injection treatments were organized in a counterbalanced, within-subjects design and separated by ≥72 h.
In a separate experiment, chow maintained (n=10) and diet-induced obese (DIO) rats (n=12) were administered 20 μg SU75-36, 200 μg SU75-36, or 20 μg SU75-37 by intracerebroventricular injection to the lateral ventricle and observed over 24 hours. One group of rats was administered a vehicle without a GPR75 inhibitor as a negative control. All rats were given ad libitum access to access to water, kaolin pellets to assess pica behavior, and food, either a standard chow diet or a 60% high fat diet (HFD). The food intake of chow (FIG. 8A) or HFD (FIG. 8B), and kaolin take of chow-maintained rats (FIG. 8C) and HFD-maintained rats (FIG. 8D) of each rat was observed 1, 3, 6, and 24 hours after administration of the GPR75 inhibitor.
Rats were weighed at the beginning of the experiment and 24 hours after administration of the GPR75 inhibitor. The weight change of each rat after 24 hours was then calculated. […] (FIGS. 8E, 8F).

[4] = Peripheral (IP) administration, food intake and body weight in DIO mice; assay type: in vivo, mouse; conditions: for 24 h food intake: IP 0.5 and 5 mg/kg, male HFD fed mice (FIG. 12 legend)
Description: DIO mice were administered 0.5 mg/kg or 5.0 mg/kg of either SU75-36 or SU75-37 in a vehicle by […] injection and observed over 24 hours. One group of mice was administered a vehicle as a negative control. All mice were given ad libitum access to water and a 60% HFD. […] (FIGS. 12A and 12C). […] Mice were weighed at the beginning of the experiment and 24 hours after administration. The weight change of each mouse after 24 hours was then calculated. […] (FIGS. 12B and 12D) This experiment was then repeated for SU75-37 at a higher dose (10 mg/kg). […] (FIG. 13A).

[5] = molecular target: T2, human GPR75 (372-540 aa region) (Homo sapiens, UniProt O95800); assay: Surface Plasmon Resonance (SPR) binding at GPR75; conditions: for Bmax ([Signal (RU)]): SPR fit; for Kd / kd / ka (1/(M*s)): SPR; for kon: read-out: ka (1/(M*s))
T2 construct: human GPR75 (372-540 aa region); purchased antibodies-online.com ABIN5709609
Description: SU75-36 binding at the human GPR75 (372-540 aa region; available on the world wide web at antibodies-online.com cat #ABIN5709609) was measured via a Nicoya Open SPR instrument using His-tagged GPR75 bound to an NTA-coated gold sensor (Nicoya cat #SEN-AU-100-10-NTA, range=4.08-204 μM) using HBSS (in-house) at 20 μL/min flow rate. Data was fit via a global, one-to-one model using Nicoya OpenSPR software.

[6] = lateral ventricle, chow and HFD rats
[7] = 5 mg/kg peripheral injection, DIO mice, 60% HFD, 3 and 24 h
[8] = His-tagged GPR75 on NTA sensor, HBSS, global one-to-one fit

Substance	binding at hGLP-1R [1]	secondary structure (folded state) from CD spectra [2]	food intake compared to control [3, 6]	body weight change after 24 hours ([3]; lateral ventricle)	kaolin intake (pica, model of malaise and nausea) [3]	food intake compared to control [4, 7]	24 h food intake [4]	Kd [5, 8]	kd ([5]; one-to-one model, global fit)	kon [5]	further results
H[dS]QGTFTSDLSKYLEEEVREFIWLKNGGPSDVNTDRPGLLDLK-NH2 [SU75-36]	poor binding	typical α-helix	significant decrease in food intake	significant decrease in weight	absence of kaolin intake	significant decrease in food intake	suppresses	7.76 µM	0.00742 s⁻¹	956 M⁻¹ s⁻¹	Kd ([1]; His-tagged hGLP-1R on NTA sensor, HBSS): 182 µM; food intake compared to any of the other groups ([3]; lateral ventricle, 200 μg, chow and HFD rats): further decrease; body weight change after 24 hours ([4]; 0.5 or 5.0 mg/kg peripheral injection, DIO mice): significant decrease in weight; Bmax ([Signal (RU)]) ([5]; curves at 10.2-102 μM peptide): 69.54 RU; Kd ([5]; Nicoya OpenSPR software, one-to-one model, global fit): 7.73 µM; ka (1/(M*s)) ([5]; one-to-one model, global fit, listed as Drug 36): 956 M⁻¹ s⁻¹
TFTSDLSKYLEEEVREFIWLKNGGPSDVNTDRPGLLDLK-NH2 [SU75-37]	did not bind; also recorded: does not bind	typical α-helix	significant decrease in food intake	significant decrease in weight	absence of kaolin intake	significant decrease in food intake	suppresses	23.8 µM	0.0141 s⁻¹	592 M⁻¹ s⁻¹	body weight change after 24 hours ([4]; IP 10 mg/kg, HFD fed mice): significant decrease in weight; food intake compared to control ([4]; IP 10 mg/kg, HFD fed mice, 10 mg/kg): significant decrease in food intake; food intake compared to control ([4]; IP 10 mg/kg, HFD fed mice, listed as 37, 10 mg/kg): suppresses; Bmax ([Signal (RU)]) ([5]; curve at 4.9 μM peptide): 3.80 RU; Bmax ([Signal (RU)]) ([5]; curve at 4.93 μM peptide): 3.57 RU; Bmax ([Signal (RU)]) ([5]; curve at 12.3 μM peptide, listed as Drug37): 11.98 RU and 9.39 RU; Bmax ([Signal (RU)]) ([5]; curve at 24.65 μM peptide): 8.98 RU; Bmax ([Signal (RU)]) ([5]; curve at 49.3 μM peptide, listed as Drug37): 47.66 RU and 51.69 RU; Bmax ([Signal (RU)]) ([5]; curve at 92.4 μM peptide): 67.67 RU; Bmax ([Signal (RU)]) ([5]; curve at 123.23 μM peptide): 110.32 RU; ka (1/(M*s)) ([5]; one-to-one model, global fit): 592 M⁻¹ s⁻¹
